The EC50 is the concentration that produces a half-maximal response. One may read the inhibition as the relative decrease from the control value, in per cent. In general, Kd refers to the concentration at which binding is half-saturated. The term Ki denotes a measure of affinity in units of concentration, obtained from inhibition or displacement. A lower Ki goes with tighter binding.

Here are results for 4 compounds from ChEMBL document CHEMBL1156487, “Proximity-accelerated chemical coupling reaction in the benzodiazepine-binding site of gamma-aminobutyric acid type A receptors: superposition of different allosteric modulators” (J Biol Chem, 2007).

Molecules are shown by their SMILES. Activity calls are given as the source filed them. No cut-off for these calls is given here.

A short description of assay [1]: (§1) Activity at rat […] GABAA alpha-1V202Cbeta-2-gamma-2 mutant receptor expressed in xenopus oocytes assessed as GABA-elicited response by two electrode voltage clamp method relative to control. It is filed as cell-based. Particulars: Oocyte. (In general: Two-electrode voltage clamp holds a large cell at a set potential and records current.)
Assay [2] has as its system Oocyte. Described as §1. In kind it is cell-based.
Assay [3] concerns Oocyte. Briefly: Activity at rat GABAA alpha-1H101Cbeta-2-gamma-2 mutant receptor expressed in xenopus oocytes assessed as change in GABA-induced current amplitude at 10 uM after 1 min exposure to GABA by two electrode voltage clamp method. In kind it is cell-based.
Assay [4] is described as follows: (§2) Activity at rat […] GABAA alpha-1G157Cbeta-2-gamma-2 mutant receptor expressed in xenopus oocytes assessed as GABA-elicited response by two electrode voltage clamp method relative to control. Particulars: Oocyte. In kind it is cell-based.
The subject of assay [5] is Oocyte. The assay is described as §2. It is filed as cell-based.
A short description of assay [6]: (§3) Activity at rat […] GABAA alpha-1H101Cbeta-2-gamma-2 mutant receptor expressed in xenopus oocytes assessed as GABA-elicited response by two electrode voltage clamp method relative to control. It is filed as cell-based. Conditions: Oocyte.
Assay [7] concerns Oocyte. The assay is described as §3. It is filed as cell-based.
Assay [8] in a line: (§4) Activity at rat […] GABAA alpha-1V211Cbeta-2-gamma-2 mutant receptor expressed in xenopus oocytes assessed as GABA-elicited response by two electrode voltage clamp method relative to control. In kind it is cell-based. Conditions: Oocyte.
In assay [9] the test system is Oocyte. Described as §4. In kind it is cell-based.
Assay [10] concerns Oocyte. Description: Activity at rat GABAA alpha-1V211Cbeta-2-gamma-2 mutant receptor expressed in xenopus oocytes assessed as change in GABA-induced current amplitude at 1 uM after 1 min exposure to GABA by two electrode voltage clamp method. It is filed as cell-based.
The target of assay [11] is T1, Gamma-aminobutyric acid receptor subunit alpha-1 (Homo sapiens) (UniProt P14867).
T1 sequence (whole entry): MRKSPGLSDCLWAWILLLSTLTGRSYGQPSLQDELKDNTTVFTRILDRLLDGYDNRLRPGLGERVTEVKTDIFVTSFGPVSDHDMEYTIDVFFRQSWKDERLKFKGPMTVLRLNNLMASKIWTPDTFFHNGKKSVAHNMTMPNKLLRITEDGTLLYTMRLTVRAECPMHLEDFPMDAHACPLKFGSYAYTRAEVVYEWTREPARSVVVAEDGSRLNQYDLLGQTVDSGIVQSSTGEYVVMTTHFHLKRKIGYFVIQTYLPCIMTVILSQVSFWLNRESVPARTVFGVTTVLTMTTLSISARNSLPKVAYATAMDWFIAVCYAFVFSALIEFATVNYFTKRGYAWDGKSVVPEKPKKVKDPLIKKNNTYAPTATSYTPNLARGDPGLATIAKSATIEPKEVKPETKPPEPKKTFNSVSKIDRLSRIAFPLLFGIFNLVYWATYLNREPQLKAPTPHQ
Particulars: Rattus norvegicus; Oocyte; 10 uM.
Description: Activity at rat wild type GABAA alpha-1-beta-2-gamma-2 receptor expressed in xenopus oocytes assessed as change in GABA-induced current amplitude at 10 uM after 5 min by two electrode voltage clamp method

The subject of assay [12] is Oocyte. Description: Activity at rat GABAA alpha-1G157Cbeta-2-gamma-2 mutant receptor expressed in xenopus oocytes assessed as change in GABA-induced current amplitude at 1 uM after 1 min exposure to GABA by two electrode voltage clamp method. In kind it is cell-based.
Assay [13] deals with HEK293. Briefly: Displacement of [3H]Ro15-1788 from rat GABAA alpha-1H101Cbeta-2-gamma-2 mutant receptor expressed in HEK293 cells assessed as residual binding at 10 nM after 1 hr by liquid scintillation counting in presence of Ro15-1788. In kind it is cell-based. (In general: Loss of bound radioactivity is the signal in a displacement assay; it reports binding, not function.)

The subject of assay [14] is HEK293. Briefly: Displacement of [3H]Ro15-1788 from rat GABAA alpha-1H101Cbeta-2-gamma-2 mutant receptor expressed in HEK293 cells assessed as residual binding at 100 nM after 1 hr by liquid scintillation counting. In kind it is cell-based.
Assay [15] deals with T1, Gamma-aminobutyric acid receptor subunit alpha-1 (Homo sapiens). Conditions: Rattus norvegicus; Oocyte; 1 uM.
Description: Activity at rat wild type GABAA alpha-1-beta-2-gamma-2 receptor expressed in xenopus oocytes assessed as change in GABA-induced current amplitude at 1 uM after 1 min exposure to GABA by two electrode voltage clamp method
For assay [16], the system named is HEK293. Description: Displacement of [3H]Ro15-1788 from rat GABAA alpha-1V202Cbeta-2-gamma-2 mutant receptor expressed in HEK293 cells assessed as residual binding at 100 nM after 1 hr by liquid scintillation counting. It is filed as cell-based.
The subject of assay [17] is Oocyte. Description: Activity at rat GABAA alpha-1H101Cbeta-2-gamma-2 mutant receptor expressed in xenopus oocytes assessed as change in GABA-induced current amplitude at 500 nM by two electrode voltage clamp method in presence of L-cysteine. In kind it is cell-based.
Assay [18] concerns HEK293. Description: Displacement of [3H]Ro15-1788 from rat GABAA alpha-1H101Cbeta-2-gamma-2 mutant receptor expressed in HEK293 cells assessed as residual binding without pretreatment of L-cysteine at 30 nM after 1 hr by liquid scintillation counting. It is filed as cell-based.
For assay [19], the system named is HEK293. Description: Displacement of [3H]Ro15-1788 from rat GABAA alpha-1H101Cbeta-2-gamma-2 mutant receptor expressed in HEK293 cells assessed as residual binding at 10 nM after 1 hr by liquid scintillation counting in presence of flunitrazepam. It is filed as cell-based.
Assay [20] deals with Oocyte. Description: Activity at rat GABAA alpha-1H101Cbeta-2-gamma-2 mutant receptor expressed in xenopus oocytes assessed as change in GABA-induced current amplitude at 10 nM to 1 uM after 1 min exposure to GABA by two electrode voltage clamp method. In kind it is cell-based.
The test system of assay [21] is Oocyte. Briefly: Activity at rat GABAA alpha-1H101Cbeta-2-gamma-2 mutant receptor expressed in xenopus oocytes assessed as change in GABA-induced current amplitude second phase stimulation at 3 uM by two electrode voltage clamp method. In kind it is cell-based.
The nature of assay [22]: Displacement of [3H]Ro15-1788 from rat GABAA alpha-1H101Cbeta-2-gamma-2 mutant receptor expressed in HEK293 cells after 1 hr assessed as residual binding by liquid scintillation counting. It is filed as cell-based.
Assay [23] in a line: Displacement of [3H]Ro15-1788 from rat GABAA alpha-1-beta-2-gamma-2S receptor expressed in HEK293 cells by liquid scintillation counting. In kind it is cell-based.
For assay [24], the system named is HEK293. Briefly: Displacement of [3H]Ro15-1788 from rat GABAA alpha-1H101Cbeta-2-gamma-2 mutant receptor expressed in HEK293 cells assessed as residual binding after pretreatment of L-cysteine at 30 nM after 1 hr by liquid scintillation counting. In kind it is cell-based.
In assay [25] the test system is Oocyte. Description: Activity at rat GABAA alpha-1H101Cbeta-2-gamma-2 mutant receptor expressed in xenopus oocytes assessed as change in GABA-induced current amplitude first phase stimulation at 3 uM by two electrode voltage clamp method. In kind it is cell-based.
Assay [26] has as its target T1, Gamma-aminobutyric acid receptor subunit alpha-1 (Homo sapiens). Conditions: Rattus norvegicus; Oocyte; 1 uM. The source holds these as a separate data set.
Description: Activity at rat wild type GABAA alpha-1-beta-2-gamma-2 receptor expressed in xenopus oocytes assessed as change in GABA-induced current amplitude at 1 uM after 5 min exposure to GABA by two electrode voltage clamp method
Assay [27] has as its system HEK293. Description: Displacement of [3H]Ro15-1788 from rat GABAA alpha-1H101Cbeta-2-gamma-2 mutant receptor expressed in HEK293 cells assessed as residual binding at 10 nM after 1 hr by liquid scintillation counting. It is filed as cell-based.
Assay [28] has as its system Oocyte. Description: Activity at rat GABAA alpha-1V202Cbeta-2-gamma-2 mutant receptor expressed in xenopus oocytes assessed as change in GABA-induced current amplitude at 1 uM after 1 min exposure to GABA by two electrode voltage clamp method. It is filed as cell-based.
Assay [29] has as its system HEK293. Description: Displacement of [3H]Ro15-1788 from rat GABAA alpha-1G157Cbeta-2-gamma-2 mutant receptor expressed in HEK293 cells assessed as residual binding at 100 nM after 1 hr by liquid scintillation counting. It is filed as cell-based.
In assay [30] the test system is HEK293. Description: Displacement of [3H]Ro15-1788 from rat GABAA alpha-1V211Cbeta-2-gamma-2 mutant receptor expressed in HEK293 cells assessed as residual binding at 100 nM after 1 hr by liquid scintillation counting. It is filed as cell-based.
In assay [31] the test system is Oocyte. Briefly: Activity at rat GABAA alpha-1H101Cbeta-2-gamma-2 mutant receptor expressed in xenopus oocytes assessed as change in GABA-induced current amplitude at 1 uM after 1 min exposure to GABA by two electrode voltage clamp method. In kind it is cell-based.

Take `Cc1ccc(-c2nc3ccc(C)cn3c2CC(=O)N(C)C)cc1` [ZOLPIDEM]: the EC50 stood at 2750 nM in assay [1], 2630 nM in [4], 1180 nM in assay [6] and 341 nM in [8]. In addition, the max activation with Oocyte [2] turned out to be 369%; in the assay with Oocyte [5], 427%; in the assay with Oocyte [7], 162%; in the assay on Oocyte [9], 127%. Also, in the assay with Oocyte [3], the inhibition amounted to 96%.
As to `CCOC(=O)c1ncn2c1CN(C)C(=O)c1cc(N=C=S)ccc1-2`, the inhibition with Oocyte [10] is 5%; in [11], 8%; in the assay with Oocyte [12] it was 88%; in [15] it was 3%; in the assay with Oocyte [21], 47%; in the assay on Oocyte [25], 53%. The figures for the inhibition (in assay [26]; in the assay on Oocyte [28]) were 4% and 71%, respectively. Further, the EC50 was 668 nM in [1], 34 nM in assay [4], 17 nM in [6] and > 2000 nM in assay [8]. For the same compound, the max activation in the assay with Oocyte [2] was 16%; with Oocyte [5], 30%; in the assay with Oocyte [7], 90%; with Oocyte [9], > 140%. Also, the Activity worked out at 73% in the assay with HEK293 [13]; 85% in the assay with HEK293 [14]; 50% in the assay with HEK293 [16]; 18% in the assay with HEK293 [18]; 64% in the assay with HEK293 [19]; 362 nM in the assay with Oocyte [20]. In addition, the Activity came out at 82% in the assay with HEK293 [24], 29% in the assay with HEK293 [27], 50% with HEK293 [29] and 50% with HEK293 [30]. Moreover, in the assay with Oocyte [17], the outcome was Active. The Kd in assay [22] amounted to 0.9 nM. The compound further had a Ki in [23] of 10 nM.
For `CCOC(=O)c1ncn2c1CN(C)C(=O)c1cc(F)ccc1-2` [FLUMAZENIL], the max activation was 1% in the assay with Oocyte [2], -2% with Oocyte [5], 22% in the assay with Oocyte [7] and 5% in the assay on Oocyte [9]. Besides, the inhibition with Oocyte [31] turned out to be 22%. Besides, the EC50 in assay [6] stood at 30 nM.
Regarding `CCOC(=O)c1ncn2c1CN(C)C(=O)c1cc(N=[N+]=[N-])ccc1-2` [Ro-154513], the max activation is 9% with Oocyte [2], 36% with Oocyte [5], 40% in the assay with Oocyte [7] and -23% with Oocyte [9]. The EC50 in [4] is 32 nM; in [6] it was 17 nM; in assay [8], 44 nM.
